Results taken from US20120196793A1, “BIOMARKERS FOR IAP INHIBITOR COMPOUNDS” (priority 2009, published 2012).

How the values were obtained:
[1] = test system: MDA-MB-231 breast cancer cell line; assay: In vitro induction of TNFα, caspase activation and cell death in tumor cell lines; assay type: cell-based; conditions: in vitro assays, variety of tumor cell lines including MDA-MB-231
TNFα [2] = assay: Secreted TNFα ELISA in a panel of cancer cell lines before and 24 hours after compound addition; assay type: cell-based, Human; conditions: sensitive vs insensitive cancer cell lines (3-day viability assays, up to 10 uM)
Description: To test whether the engagement of the TNFα signaling pathway is requisite for single agent activity in vitro, a panel of cancer cell lines is evaluated for sensitivity to Compound A while in parallel, secreted TNFα expression levels are assessed by ELISA before and 24 hours after compound addition. […] Increased basal TNFα levels also positively correlate with sensitivity to Compound A (FIG. 8).
(§1) On day one, cancer cells are plated into two 96-well, clear, flat bottom plates. All wells in row A contain 200 uL of media. All wells in rows B-G contain 5000 cells per well in 180 ul of RPMI media with 10% FBS. Plates are then incubated overnight for 18 hours at 37 C, 5% CO2. […] TNFα levels in the media are measured using the R&D Quantikine Human TNFα High Sensitivity ELISA assay, catalog number HSTA00D. […] The colorimetric readout is measured on a spectrometer at 490nM within 30 minutes of adding the stop solution. Raw data is normalized to account for background noise, duplicate values are averaged and concentrations are calculated from a standard curve (FIG. 8). […] CTG measures the amount of ATP released from viable cells that can be measured by a luminescent plate reader. Cells with CTG are incubated for ten minutes at room temperature and read on a luminescent plate reader. Raw data is normalized to account for background noise, duplicate values are averaged and percent control growth is calculated.

TNFα [3] = assay: TNFα ELISA of tumor lysates from orthotopic MDA-MB-231 xenografts after a single oral dose; assay type: in vivo, mice; conditions: 39 days after tumor cell implantation, mean tumor volume approximately 141 mm3
Description: To assess whether the induction of TNFα observed in the MDA-MB-231 breast tumor cell line translated to an in vivo setting, an experiment is performed in mice harboring orthotopically implanted MBA-MD-231 tumors.
A single oral dose of Compound A is administered 39 days following tumor cell implantation when mean tumor volumes reached approximately 141 mm3. Tumors are harvested from each animal, lysed, and analyzed by ELISA to determine TNFα concentrations.

TNFα [4] = assay: TNFα ELISA in SK-OV-3 cells with shRNA knockdown of NFkB pathway nodes; assay type: cell-based, Human
Description: To elucidate this mechanism, nodes of the canonical and non-canonical NFkB pathways and are knocked down and induction of TNFα expression, a marker of NFkB activation, after treatment with the Smac mimetic compound Compound A, is assessed. […] Therefore, tumors with active or functional canonical NFkB signaling, as evidenced by TNFα expression or other markers of active NFkB signaling, are more likely to respond to Compound A.
as §1, with “one, SKOV” for “one,”, “10% FBS and 1 ug/mL of puromycin.” for “10% FBS.”, “Human TNFalpha” for “Human TNFα”, “at 490 nM” for “at 490nM”, “(FIG. 9).” for “(FIG. 8).”, “reader. […]” for “reader. Raw data is normalized to account for background noise, duplicate values are averaged and percent control growth is calculated.”

[5] = test system: patient-derived tumor models representing both triple negative breast cancer and Non Small Cell Lung Carcinoma (NSCLC); assay: Single agent tumor growth inhibition (% T/C) in patient-derived xenograft models; assay type: in vivo, nude mice; conditions: 18 patient-derived tumor models
Excerpt: Patient-derived xenograft models in which human tumors are surgically resected then directly implanted and subsequently passaged in nude mice are potentially more clinically relevant than cell line models since there is no selective pressure for two dimensional growth on a plastic stratum.
Compound A has been tested for single agent activity in 18 patient-derived tumor models representing both triple negative breast cancer and Non Small Cell Lung Carcinoma (NSCLC) models. Tumor growth inhibition by Compound A is reported as % T/C (percent growth of tumors in mice treated with Compound A relative to the growth of tumors in Control vehicle treated mice). Complete regression of a tumor would be reported as −100% T/C, tumor stasis (no growth) would be reported as 0% T/C, and no effect would be reported as 100% T/C. […] Stasis (T/C≦40%) has been observed in 25% of primary models assessed.

## CN[C@@H](C)C(=O)N[C@H](C(=O)N1CCC[C@H]1c1nc(C(=O)c2ccc(F)cc2)cs1)C1CCCCC1 [Compound A, (S)—N—((S)-1-Cyclohexyl-2-{(S)-2-[4-(4-fluoro-benzoyl)-thiazol-2-yl]-pyrrolidin-1-yl}-2-oxo-ethyl)-2-methylamino-propionamide]
[1]
  induction of TNFα, activation of caspases and subsequent cell death: induces the induction of TNFα, activation of caspases and subsequent cell death
TNFα [2]
  induction of secreted TNFα: induced TNF-alpha in sensitive but not insensitive cancer cell lines
TNFα [3]
  increase in TNFα in MDA-MB-231 tumor lysates: ~10 fold
TNFα [4]; SK-OV-3, shRNA-mediated knockdown of RelB (non-canonical NFkB pathway)
  Compound A-mediated induction of TNFα after knockdown of RelB: does not impact
TNFα [4]; SK-OV-3 ovarian carcinoma cell line, shRNA-mediated knockdown of RelA (canonical NFkB pathway)
  Compound A-mediated TNF induction after knockdown of RelA: ablated TNF induction
[5]
  range of responses (% T/C): from tumor regression to no effect
  share of primary models in which stasis (T/C≦40%) was observed: 25%
